# pIC50: −log10 of the molar value.
# Biological target: T1, chicken gizzard smooth muscle myosin subfragment-1 chemically crosslinked to cardiac or skeletal actin (Gallus gallus, UniProt P10587)
# T1 construct: chicken gizzard smooth muscle myosin subfragment-1; from tissue; host or cells: chicken gizzard
# Experiment: Smooth muscle myosin ATPase dose response assay (pyruvate kinase/horseradish peroxidase/pyruvate oxidase-coupled, amplex red fluorescence)
# Assay type: biochemical
# Details: read-out: IC50 Arithmetic Mean
# How it was run: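 Readout is amplex red signal from coupled ATPase of actin-crosslinked gizzard myosin S1 (0.15 mM ATP, 12 mM K-PIPES, pH 7.00). IC50 is the half-maximal activity point of a four-parameter Hill fit.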
# T1 sequence (P02607 2-151): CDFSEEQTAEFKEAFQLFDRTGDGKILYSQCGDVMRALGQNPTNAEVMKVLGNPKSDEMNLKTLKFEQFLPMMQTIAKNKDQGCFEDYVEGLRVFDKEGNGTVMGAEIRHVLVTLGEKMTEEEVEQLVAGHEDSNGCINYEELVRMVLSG
# T1 sequence (P10587 84-789): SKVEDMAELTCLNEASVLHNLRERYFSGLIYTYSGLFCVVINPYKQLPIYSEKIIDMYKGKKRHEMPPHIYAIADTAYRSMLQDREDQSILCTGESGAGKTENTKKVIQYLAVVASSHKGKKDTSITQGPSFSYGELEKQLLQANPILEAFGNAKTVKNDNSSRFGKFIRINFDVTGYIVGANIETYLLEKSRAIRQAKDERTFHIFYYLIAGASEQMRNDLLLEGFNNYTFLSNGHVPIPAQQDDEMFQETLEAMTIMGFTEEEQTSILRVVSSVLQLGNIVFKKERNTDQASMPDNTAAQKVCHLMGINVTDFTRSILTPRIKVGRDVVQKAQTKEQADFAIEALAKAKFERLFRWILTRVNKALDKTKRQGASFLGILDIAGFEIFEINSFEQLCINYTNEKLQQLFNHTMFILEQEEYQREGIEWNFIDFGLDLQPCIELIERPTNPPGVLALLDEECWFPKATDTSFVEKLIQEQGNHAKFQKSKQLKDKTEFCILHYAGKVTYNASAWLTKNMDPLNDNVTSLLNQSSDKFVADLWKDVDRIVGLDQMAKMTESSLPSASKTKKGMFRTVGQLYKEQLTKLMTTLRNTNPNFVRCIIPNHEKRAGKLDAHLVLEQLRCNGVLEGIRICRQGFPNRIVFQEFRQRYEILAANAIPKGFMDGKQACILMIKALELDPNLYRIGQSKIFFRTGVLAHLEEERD
row,SMILES,pIC50
1,N#Cc1ccccc1-c1ccc(C(=O)NCC2CCN(C(=O)CCCN)CC2)c(NCCc2cccc(F)c2)n1 [N-{[1-(4-aminobutanoyl)(4-piperidyl)]methyl}(6-(2-cyanophenyl)-2-{[2-(3-fluorophenyl)ethyl]amino}(3-pyridyl))carboxamide],5.22
2,O=C1CNC[C@@H](CNC(=O)c2ccc(-c3cn[nH]c3)nc2NCCc2cccc(F)c2)N1 [N-[((2S)-6-oxopiperazin-2-yl)methyl](2-{[2-(3-fluorophenyl)ethyl]amino}-6-pyrazol-4-yl(3-pyridyl))carboxamide],4.80
3,CNCCNC(=O)c1ccc(-c2ccccc2C#N)nc1NCCc1cccc(F)c1 [(6-(2-cyanophenyl)-2-{[2-(3-fluorophenyl)ethyl]amino}(3-pyridyl))-N-[2-(methylamino)ethyl]carboxamide],5.35
4,"O=C(NCc1ncco1)c1ccc(-c2ccccc2)nc1NCCc1ccccn1 [N-(1,3-oxazol-2-ylmethyl){6-phenyl-2-[(2-(2-pyridyl)ethyl)amino](3-pyridyl)}carboxamide]",5.31
5,N#Cc1ccccc1-c1ccc(C(=O)NCCN2CCNCC2)c(NCCc2cccc(F)c2)n1 [(6-(2-cyanophenyl)-2-{[2-(3-fluorophenyl)ethyl]amino}(3-pyridyl))-N-(2-piperazinylethyl)carboxamide],4.79
6,Cc1cc(C(=O)NC[C@H]2CCC(=O)N2CCCNC(=O)OC(C)(C)C)c(NCCc2cccc(F)c2)nc1-c1cnn(C)c1 [N-[((2R)-1-{3-[(tert-butoxy)carbonylamino]propyl}-5-oxopyrrolidin-2-yl)methyl](2-{[2-(3-fluorophenyl)ethyl]amino}-5-methyl-6-(1-methylpyrazol-4-yl)(3-pyridyl))carboxamide],5.84
7,N#Cc1ccc(-c2ccc(C(=O)NCc3cccnc3)c(NCCc3ccccn3)n2)cc1 [{6-(4-cyanophenyl)-2-[(2-(2-pyridyl)ethyl)amino](3-pyridyl)}-N-(3-pyridylmethyl)carboxamide],5.71
8,COC(=O)[C@H](C)NC(=O)c1ccc(-c2ccccc2C#N)nc1NCCc1cccc(F)c1 [methyl (2S)-2-[(6-(2-cyanophenyl)-2-{[2-(3-fluorophenyl)ethyl]amino}(3-pyridyl))carbonylamino]propanoate],5.16
9,"CN(C)C(=O)[C@@H](N)CNC(=O)c1ccc(-c2ccccc2C#N)nc1NCCc1cccc(F)c1 [(2S)-2-amino-3-[(6-(2-cyanophenyl)-2-{[2-(3-fluorophenyl)ethyl]amino}(3-pyridyl))carbonylamino]-N,N-dimethylpropanamide]",5.09
10,N#Cc1ccccc1-c1ccc(C(=O)NC[C@H]2CN(C(=O)CCCN)CCN2)c(NCCc2cccc(F)c2)n1 [N-{[(2S)-4-(4-aminobutanoyl)piperazin-2-yl]methyl}(6-(2-cyanophenyl)-2-{[2-(3-fluorophenyl)ethyl]amino}(3-pyridyl))carboxamide],4.91
11,Cc1cccc(-c2ccc(C(=O)NCc3cccnc3)c(NCCc3ccccn3)n2)c1 [{6-(3-methylphenyl)-2-[(2-(2-pyridyl)ethyl)amino](3-pyridyl)}-N-(3-pyridylmethyl)carboxamide],5.20
12,Cn1cc(-c2nc(NCCc3cccc(F)c3)c(C(=O)NC[C@H]3CCCN3C(=O)OC(C)(C)C)cc2F)cn1 [tert-butyl (2R)-2-{[(5-fluoro-2-{[2-(3-fluorophenyl)ethyl]amino}-6-(1-methylpyrazol-4-yl)(3-pyridyl))carbonylamino]methyl}pyrrolidinecarboxylate],5.84

# Compounds with a higher pIC50, results first:
row,pIC50,SMILES
1,7.68,Cn1cc(-c2nc(NCCc3cccc(F)c3)c(C(=O)NCc3cccnc3)cc2C#N)cn1 [(5-cyano-2-{[2-(3-fluorophenyl)ethyl]amino}-6-(1-methylpyrazol-4-yl)(3-pyridyl))-N-(3-pyridylmethyl)carboxamide]
2,7.66,Cc1ncccc1CNC(=O)c1ccc(-c2ccccc2C#N)nc1NCCc1cccc(F)c1 [(6-(2-cyanophenyl)-2-{[2-(3-fluorophenyl)ethyl]amino}(3-pyridyl))-N-[(2-methyl(3-pyridyl))methyl]carboxamide]
3,6.20,O=C(NCc1cccnc1)c1cc(CO)c(-c2ccccc2)nc1NCCc1cccc(F)c1 [(2-{[2-(3-fluorophenyl)ethyl]amino}-5-(hydroxymethyl)-6-phenyl(3-pyridyl))-N-(3-pyridylmethyl)carboxamide]
4,6.97,NCC(=O)N1CCC[C@@H]1CNC(=O)c1cc(F)c(-c2cc[nH]n2)nc1NCCc1cccc(F)c1 [N-{[(2R)-1-(2-aminoacetyl)pyrrolidin-2-yl]methyl}(5-fluoro-2-{[2-(3-fluorophenyl)ethyl]amino}-6-pyrazol-3-yl(3-pyridyl))carboxamide]
5,6.00,N#Cc1ccccc1-c1ccc(C(=O)NC[C@@H]2CCCN2C(=O)CN)c(NCCc2cccc(F)c2)n1 [N-{[(2S)-1-(2-aminoacetyl)pyrrolidin-2-yl]methyl}(6-(2-cyanophenyl)-2-{[2-(3-fluorophenyl)ethyl]amino}(3-pyridyl))carboxamide]
6,7.23,"N#Cc1ccccc1-c1ccc(C(=O)NC[C@H]2CCCN2C(=O)[C@@H](N)CN)c(NCCc2cccc(F)c2)n1 [N-{[(2R)-1-((2S)-2,3-diaminopropanoyl)pyrrolidin-2-yl]methyl}(6-(2-cyanophenyl)-2-{[2-(3-fluorophenyl)ethyl]amino}(3-pyridyl))carboxamide]"
7,7.36,N#Cc1ccccc1CCNc1nc(-c2ccccc2C#N)ccc1C(=O)NCc1cccnc1 [(6-(2-cyanophenyl)-2-{[2-(2-cyanophenyl)ethyl]amino}(3-pyridyl))-N-(3-pyridylmethyl)carboxamide]
8,7.29,"N#Cc1ccccc1-c1ccc(C(=O)NC[C@H]2CCN2C(=O)C(O)CO)c(NCCc2cccc(F)c2)n1 (stereo partly drawn) [N-{[(2R)-1-(2,3-dihydroxypropanoyl)azetidin-2-yl]methyl}(6-(2-cyanophenyl)-2-{[2-(3-fluorophenyl)ethyl]amino}(3-pyridyl))carboxamide]"
9,6.58,N#Cc1ccccc1-c1ccc(C(=O)NCCc2cnccn2)c(NCCc2cccc(F)c2)n1 [(6-(2-cyanophenyl)-2-{[2-(3-fluorophenyl)ethyl]amino}(3-pyridyl))-N-(2-pyrazin-2-ylethyl)carboxamide]
10,7.28,C[C@H](N)C(=O)N1CCCC[C@@H]1CNC(=O)c1ccc(-c2ccccc2C#N)nc1NCCc1cccc(F)c1 [N-{[(2R)-1-((2S)-2-aminopropanoyl)(2-piperidyl)]methyl}(6-(2-cyanophenyl)-2-{[2-(3-fluorophenyl)ethyl]amino}(3-pyridyl))carboxamide]
11,6.51,"Cn1cc(-c2nc(NCCc3cccc(F)c3)c(C(=O)NCC(O)CO)cc2F)cn1 (centres unmarked) [N-(2,3-dihydroxypropyl)(5-fluoro-2-{[2-(3-fluorophenyl)ethyl]amino}-6-(1-methylpyrazol-4-yl)(3-pyridyl))carboxamide]"

# — patent publication US7932270B2 (Cytokinetics, Inc., priority 2006, dated 2011)
